US10485844B2, “Methods for treating severe atopic dermatitis by administering an IL-4R inhibitor” (Regeneron Pharmaceuticals, Inc., priority 2016, dated 2019)
Marks after values point to notes of the source that are not given here.

System: adult patients with severe AD
Experiment: 16-week randomized placebo-controlled trial of dupilumab + TCS in adults with severe AD not adequately controlled with or intolerant to cyclosporine A (efficacy and safety);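 note: subcutaneous dosing after a 600 mg loading dose on day 1, with standardized medium-potency TCS background from day −14, compared against matching injectable placebo arm, 1:1:1 randomization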
[1] = 300 mg dupilumab q2w + TCS (N = 107), 16-week treatment period
[2] = 300 mg dupilumab q2w + TCS, Week 16
[3] = dupilumab 300 mg q2w + TCS, week 16

For “dupilumab: fully human anti-IL-4R antibody; heavy chain SEQ ID NO: 9, light chain SEQ ID NO: 10”, the “DLQI score, mean change from baseline to Week 16 (±SE)” value (300 mg dupilumab q2w + TCS) was −9.7 (0.64)***^, the “DLQI score: Proportion of Patients with ≥4-point improvement at Week 16” value (300 mg dupilumab q2w + TCS) was 85 (79.4)*** % and the “POEM score, mean change from baseline to Week 16 (±SE)” value (300 mg dupilumab q2w + TCS) was −11.7 (0.68)***. The “POEM score: Proportion of patients with ≥4-point improvement at Week 16” value (300 mg dupilumab q2w + TCS) was 89 (83.2)*** %, the “Proportion of patients with DLQI 0 or 1 at Week 16” value (300 mg dupilumab q2w + TCS) was 32 (29.9)** % and the “Atopic dermatitis (AE), n (%)” value [1] was “(7.5) %”. For the same substance, the “Conjunctivitis allergic, n (%)” value [1] was “(15.0) %”, the “Conjunctivitis, n (%)” value [1] was “(11.2) %” and the “Headache, n (%)” value [1] was “(9.3) %”. For the same substance, the “Nasopharyngitis, n (%)” value [1] was “(20.6) %”, the “Number of patients with TEAEs, n (%)” value [1] was “(72.0) %” and the “Rhinitis allergic, n (%)” value [1] was “(6.5) %”. The “DLQI: Proportion of patients reporting “no impact” or “little impact”: Affected social, leisure activity” value [2] was “(91.6)*** %”, the “DLQI: Proportion of patients reporting “no impact” or “little impact”: Caused any sexual difficulties” value [2] was “(93.5)*** %” and the “DLQI: Proportion of patients reporting “no impact” or “little impact”: How embarrassed, self-conscious” value [2] was “(86.9)*** %”. The “DLQI: Proportion of patients reporting “no impact” or “little impact”: How itchy, sore, painful, stinging” value [2] was “(83.2)*** %”, the “DLQI: Proportion of patients reporting “no impact” or “little impact”: How much a problem is treatment” value [2] was “(89.7)*** %” and the “DLQI: Proportion of patients reporting “no impact” or “little impact”: Influenced clothes you wear” value [2] was “(84.1)*** %”. The “DLQI: Proportion of patients reporting “no impact” or “little impact”: Interfered shopping, home, yard” value [2] was “(93.5)*** %”, the “DLQI: Proportion of patients reporting “no impact” or “little impact”: Made it difficult to do any sports” value [2] was “(90.7)*** %” and the “DLQI: Proportion of patients reporting “no impact” or “little impact”: Prevented/problem at working or studying” value [2] was “(91.6)*** %”. For the same substance, the “DLQI: Proportion of patients reporting “no impact” or “little impact”: Problem partner, friends, relative” value [2] was “(95.3)*** %”, the “POEM: Proportion of patients reporting ‘no days’ or ‘1-2 days’: Last week days been weeping/oozing” value [2] was “(87.9)*** %” and the “POEM: Proportion of patients reporting ‘no days’ or ‘1-2 days’: Last week days skin been bleeding” value [2] was “(84.1)*** %”. The “POEM: Proportion of patients reporting ‘no days’ or ‘1-2 days’: Last week days skin been cracked” value [2] was “(75.7)*** %”, the “POEM: Proportion of patients reporting ‘no days’ or ‘1-2 days’: Last week days skin been flaking off” value [2] was “(65.4)*** %” and the “POEM: Proportion of patients reporting ‘no days’ or ‘1-2 days’: Last week days skin been itchy” value [2] was “(45.8)*** %”. For the same substance, the “POEM: Proportion of patients reporting ‘no days’ or ‘1-2 days’: Last week days skin felt dry or rough” value [2] was “(59.8)*** %”, the “POEM: Proportion of patients reporting ‘no days’ or ‘1-2 days’: Last week nights sleep been disturbed” value [2] was “(83.2)*** %” and the “SCORAD VAS sleep loss, LS mean percent change from baseline to Week 16 (±SE)” value (300 mg dupilumab q2w + TCS, n = 98) was −61.2 (34.38)* percent. The “SCORAD VAS sleep loss, LS mean change from baseline to Week 16 (±SE)” value (300 mg dupilumab q2w + TCS, n = 106) was −3.0 (0.25)***^, the “Pruritus NRS: Proportion of patients with ≥3-point improvement at Week 16” value (300 mg dupilumab q2w + TCS, patients with baseline peak pruritus NRS ≥3) was 56/99 (56.6)*** % and the “Pruritus NRS: Proportion of patients with ≥4-point improvement at Week 16” value (300 mg dupilumab q2w + TCS, patients with baseline peak pruritus NRS ≥4) was 43/94 (45.7)*** %. For the same substance, the “deaths during the study” value (all treatment groups) was “No deaths”, the “skin infections vs placebo” value (combined dupilumab-treated groups) was “fewer skin infections” and the “% change in EASI score from baseline to week 16” value (dupilumab 300 mg q2w + TCS) was −79.8%. The “Mean weekly dose of TCS use during the treatment period” value (dupilumab 300 mg q2w + TCS) was 15.0, the “% change from baseline in SCORAD” value [3] was −58.3% and the “% change in baseline in weekly average of peak daily pruritus NRS” value [3] was −53.9%. For the same substance, the “% patients with EASI-75” value [3] was 62.6%, the “% patients with IGA 0 or 1 and reduction from baseline of ≥2 points” value [3] was 40.2% and the “Change from baseline in % BSA” value [3] was −39.2 % BSA. The “Change from baseline in DLQI” value [3] was −9.6, the “Change from baseline in HADS” value [3] was −6.1 and the “Change from baseline in POEM” value [3] was −11.9. For the same substance, the “% patients with EASI-75 for patients with prior CSA use” value (dupilumab 300 mg q2w + TCS, week 16, N = 69) was 58.0%, the “% patients with reduction of weekly average peak daily pruritus NRS ≥4 from baseline” value (dupilumab 300 mg q2w + TCS, week 16, N = 94) was 45.7% and the “% change in EASI score from baseline to week 16” value (dupilumab 300 mg qw + TCS) was −78.2%. The “Mean weekly dose of TCS use during the treatment period” value (dupilumab 300 mg qw + TCS) was 17.5 and the “% change from baseline in SCORAD” value (dupilumab 300 mg qw + TCS, week 16) was −62.4%.
